Measurements reported in paper PMC5712561 (Frontiers in Oncology, 2017).
Where two headings read alike, the source gives them in different places.

Key:
EGFR phosphorylation = assay: Western blot, EGFR autophosphorylation in HCC827 and H1975 cells; format: cell-based; conditions: H1975 compared with HCC827, 4 h, result in words
Procedure: (§1) Non-small cell lung cancer (HCC827, H1975) cell lines were treated with the tested drug candidates for the designated time (4 h). The cells were then harvested for Western blot analysis in lysis buffer (0.05-M HEPES pH 7.4, 0.15-M NaCl, 2-mM EDTA, 10% v/v glycerol, 1% v/v Triton X-100) supplemented with protease and phosphatase inhibitor cocktail (Thermo Scientific). Whole cell lysates were separated by SDS-PAGE and subjected to immunoblot analysis with the respective antibodies [total EGFR, phosphor-EGFR (Y845), phosphor-ERK1/2 (Thr177/Thr160), ERK1/2, phosphor-Akt, total Akt, and GAPDH (Santa Cruz Biotechnology, Santa Cruz, CA, USA)]. Primary antibody incubation was carried out at 4°C overnight in 5% bovine serum albumin/phosphate-buffered saline-Tween 20. Afterward, the membranes were incubated with HRP-conjugated donkey anti-mouse/anti-rabbit secondary antibody at room temperature for 1 h, and developed using the WesternBright Quantum chemiluminescence detection system (Advansta Corporation, Menlo Park, CA, USA). Anti-GAPDH antibody was used as the loading control (Santa Cruz Biotech, Santa Cruz, CA, USA). Digital chemiluminescence images were captured and quantified by using the FluorChem Q Imaging System (Alpha Innotech Corporation, Santa Clara, CA, USA).

BEAS-2B cells = assay: Cytotoxicity in normal lung epithelial cell line BEAS-2B; format: cell-based, human; conditions: for reduced cell viability: BEAS-2B
Source text: (§2) Two NSCLC cell lines carrying specific EGFR mutations (HCC827: EGFR sensitizing E746_A750 deletion; H1975: resistance-causing EGFR T790M secondary mutation) were purchased from American Type Culture Collection (ATCC; Manassas, VA, USA). A normal human lung epithelial cell line BEAS-2B was also obtained from ATCC to investigate the potential toxic effect of the tested drugs. HCC827, H1975, and BEAS-2B cells were maintained in RPMI1640 medium supplemented with 10% fetal bovine serum, 100-U/mL streptomycin sulfate, and 100-U/mL penicillin G sulfate, and incubated at 37°C in 5% CO2.
(§3) Growth inhibitory effects of various drug candidates on the cell lines were evaluated by the sulforhodamine B assay ([32]). Cells were seeded into 96-well tissue culture plates in 100 µL at a plating density of 3,000–5,000 cells/well, and allowed to incubate overnight. The cells were then treated with various drug candidates at a range of concentrations and allowed to incubate at 37°C in 5% CO2 for 72 h. Each drug concentration was tested in quadruplicate and controls were tested in replicates of eight.

H1975 cells [1] = assay: Annexin V apoptosis assay; format: cell-based; conditions: for induction of apoptosis: H1975, 48 h, result in words; for proportion of apoptotic cells: 48 h
Procedure: Cells were grown on a 60-mm tissue culture dish at a density of about 5.0 × 10^5 cells/well. […] At the end of the treatment, both floating and attached cells were collected and washed twice with ice-cold phosphate buffer solution. The extent of apoptosis was determined by using the APC annexin-V apoptosis kit (BD Bioscience, San Jose, CA, USA) according to the manufacturer’s instructions. Cells positive for both annexin V and 7-AAD were considered apoptotic.

EGFR wild type [2] = molecular target: EGFR wild type (Homo sapiens, UniProt P00533); assay: Cell-free kinase inhibition assay (ADP-Glo), EGFR wild type; format: biochemical; conditions: recombinant EGFR wild type, poly-EY substrate
Procedure: (§4) Inhibition of tyrosine kinase signaling by the drug candidates identified was examined in a cell-free system by assessing the phosphorylation of a poly-EY (4:1 Glu, Tyr) peptide substrate (for EGFR) with recombinant kinases EGFR^wt, EGFR^L858R, or EGFR^L858R+T790M as described previously ([34]). Inhibition of the recombinant kinases by the drug candidates was evaluated by using the ADP-Glo Kinase assay kit according to the manufacturer’s instruction (Promega, Madison, WI, USA). […] Also, 5 µL of ADP-Glo reagent was then added and incubation continued at room temperature for another 40 min. Afterward, 10 µL of kinase detection reagent was added and the mixture was allowed to incubate at room temperature for 30 min, before the measurement of luminescence by GloMax 20/20 Luminometer (Promega).

EGFR wild type [3] = assay: as above; format: biochemical; conditions: wild type IC50 versus L858R IC50
Procedure: as §4

H1975 cells [4] = assay: Growth inhibition, sulforhodamine B assay, H1975; format: cell-based; conditions: for anticancer activity / effect on cell proliferation: H1975, result in words
Source text: as §2, §3

EGFR L858R = EGFR L858R (Homo sapiens, UniProt P00533, L858R); assay: Cell-free kinase inhibition assay (ADP-Glo), EGFR L858R; format: biochemical; conditions: recombinant EGFR L858R, poly-EY substrate
Procedure: as §4

EGFR L858R/T790M = EGFR L858R/T790M (Homo sapiens, UniProt P00533, L858R/T790M); assay: Cell-free kinase inhibition assay (ADP-Glo), EGFR L858R/T790M; format: biochemical; conditions: for Fold difference from L858R value: L858R/T790M IC50 versus L858R IC50; for IC50: recombinant EGFR L858R/T790M, poly-EY substrate
Procedure: as §4

HCC827 cells = assay: Growth inhibition, sulforhodamine B assay, HCC827; format: cell-based; conditions: for anticancer activity / effect on cell proliferation: HCC827, result in words; for IC50: HCC827 (EGFR E746_A750 deletion), 72 h
Source text: as §2, §3

[5] = test system: L858R/T790M EGFR-bearing NSCLC cells; conditions: L858R/T790M EGFR-bearing NSCLC cells ref 15; cited from earlier work
PUMA = assay: Western blot, induction of PUMA in HCC827 and H1975 cells; format: cell-based; conditions: H1975 compared with HCC827, result in words
[6] = test system: phosphorylation of Akt and ERK; assay: Western blot, phosphorylation of Akt and ERK in HCC827 and H1975 cells; format: cell-based; conditions: H1975 compared with HCC827, 4 h, result in words
Procedure: as §1

[7] = test system: phosphorylation of EGFR, Akt, and ERK; assay: Western blot, drug combination, phosphorylation of EGFR, Akt and ERK in H1975 cells; format: cell-based; conditions: H1975, gefitinib 10 µM, indacaterol 10 µM, alone or concomitant, 4 h, result in words
[8] = highest concentration tested 100 µM
[9] = H1975 (EGFR L858R/T790M), 72 h, read-out: IC50

Sequence of EGFR wild type (Homo sapiens, UniProt P00533) (P00533 25-1210): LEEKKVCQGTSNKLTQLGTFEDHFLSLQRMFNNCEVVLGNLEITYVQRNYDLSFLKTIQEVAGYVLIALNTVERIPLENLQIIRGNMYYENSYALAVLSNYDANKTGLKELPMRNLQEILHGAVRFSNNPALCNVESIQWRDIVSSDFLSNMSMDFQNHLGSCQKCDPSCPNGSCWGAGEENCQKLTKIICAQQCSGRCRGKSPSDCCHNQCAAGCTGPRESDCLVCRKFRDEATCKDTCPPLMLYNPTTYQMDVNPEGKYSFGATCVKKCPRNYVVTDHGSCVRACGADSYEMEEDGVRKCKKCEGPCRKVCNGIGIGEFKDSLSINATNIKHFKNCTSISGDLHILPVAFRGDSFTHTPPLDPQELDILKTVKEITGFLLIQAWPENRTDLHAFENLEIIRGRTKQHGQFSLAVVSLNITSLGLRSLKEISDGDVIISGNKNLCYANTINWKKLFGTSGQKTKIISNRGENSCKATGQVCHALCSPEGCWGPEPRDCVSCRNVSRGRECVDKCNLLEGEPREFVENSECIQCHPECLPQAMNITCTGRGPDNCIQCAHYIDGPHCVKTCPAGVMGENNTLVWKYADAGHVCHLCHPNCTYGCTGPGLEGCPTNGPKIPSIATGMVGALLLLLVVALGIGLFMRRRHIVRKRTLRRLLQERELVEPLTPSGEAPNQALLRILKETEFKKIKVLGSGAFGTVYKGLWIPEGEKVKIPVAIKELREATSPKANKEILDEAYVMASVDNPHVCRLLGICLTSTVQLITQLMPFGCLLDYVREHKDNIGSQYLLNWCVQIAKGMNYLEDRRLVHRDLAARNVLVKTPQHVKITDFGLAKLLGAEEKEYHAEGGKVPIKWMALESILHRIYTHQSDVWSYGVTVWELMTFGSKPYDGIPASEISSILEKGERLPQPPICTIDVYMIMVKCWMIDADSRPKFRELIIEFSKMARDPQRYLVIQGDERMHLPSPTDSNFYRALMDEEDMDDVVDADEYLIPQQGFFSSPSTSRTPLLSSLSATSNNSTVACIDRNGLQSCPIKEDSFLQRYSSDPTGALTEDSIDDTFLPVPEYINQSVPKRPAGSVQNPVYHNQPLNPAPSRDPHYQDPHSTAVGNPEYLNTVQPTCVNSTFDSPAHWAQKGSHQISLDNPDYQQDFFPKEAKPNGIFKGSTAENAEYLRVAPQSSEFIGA
Sequence of EGFR L858R (P00533 25-1210 L858R): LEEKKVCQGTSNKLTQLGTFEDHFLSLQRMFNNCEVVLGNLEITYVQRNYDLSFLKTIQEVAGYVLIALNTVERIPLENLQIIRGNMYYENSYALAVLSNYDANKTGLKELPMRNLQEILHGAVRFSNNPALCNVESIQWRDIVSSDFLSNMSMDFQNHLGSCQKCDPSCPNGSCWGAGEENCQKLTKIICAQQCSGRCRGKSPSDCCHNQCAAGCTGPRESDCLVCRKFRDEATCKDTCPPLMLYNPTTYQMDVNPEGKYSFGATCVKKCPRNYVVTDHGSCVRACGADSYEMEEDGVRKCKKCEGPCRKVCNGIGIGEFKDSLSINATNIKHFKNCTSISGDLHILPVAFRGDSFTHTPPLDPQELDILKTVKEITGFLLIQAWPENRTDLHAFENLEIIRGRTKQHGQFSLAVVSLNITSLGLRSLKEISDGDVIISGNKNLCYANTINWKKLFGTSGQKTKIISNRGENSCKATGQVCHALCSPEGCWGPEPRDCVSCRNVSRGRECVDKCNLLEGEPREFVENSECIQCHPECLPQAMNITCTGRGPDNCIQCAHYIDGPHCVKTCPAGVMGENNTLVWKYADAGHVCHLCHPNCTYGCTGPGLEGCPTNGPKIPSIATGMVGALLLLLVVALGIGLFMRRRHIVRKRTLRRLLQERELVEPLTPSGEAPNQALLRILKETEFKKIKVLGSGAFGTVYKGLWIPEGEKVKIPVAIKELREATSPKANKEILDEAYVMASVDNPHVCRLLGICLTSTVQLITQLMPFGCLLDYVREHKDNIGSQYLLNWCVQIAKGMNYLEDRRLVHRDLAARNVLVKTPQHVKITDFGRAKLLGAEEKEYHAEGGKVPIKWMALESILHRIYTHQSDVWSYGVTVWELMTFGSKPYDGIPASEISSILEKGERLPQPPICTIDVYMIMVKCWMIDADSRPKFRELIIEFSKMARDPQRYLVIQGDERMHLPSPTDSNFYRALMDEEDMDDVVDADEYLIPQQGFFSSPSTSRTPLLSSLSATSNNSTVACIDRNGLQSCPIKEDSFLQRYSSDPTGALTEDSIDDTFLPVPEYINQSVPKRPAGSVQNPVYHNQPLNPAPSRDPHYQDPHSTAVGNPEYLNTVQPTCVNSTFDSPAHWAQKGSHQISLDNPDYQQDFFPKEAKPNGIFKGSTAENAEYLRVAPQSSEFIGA
Sequence of EGFR L858R/T790M (P00533 25-1210 T790M/L858R): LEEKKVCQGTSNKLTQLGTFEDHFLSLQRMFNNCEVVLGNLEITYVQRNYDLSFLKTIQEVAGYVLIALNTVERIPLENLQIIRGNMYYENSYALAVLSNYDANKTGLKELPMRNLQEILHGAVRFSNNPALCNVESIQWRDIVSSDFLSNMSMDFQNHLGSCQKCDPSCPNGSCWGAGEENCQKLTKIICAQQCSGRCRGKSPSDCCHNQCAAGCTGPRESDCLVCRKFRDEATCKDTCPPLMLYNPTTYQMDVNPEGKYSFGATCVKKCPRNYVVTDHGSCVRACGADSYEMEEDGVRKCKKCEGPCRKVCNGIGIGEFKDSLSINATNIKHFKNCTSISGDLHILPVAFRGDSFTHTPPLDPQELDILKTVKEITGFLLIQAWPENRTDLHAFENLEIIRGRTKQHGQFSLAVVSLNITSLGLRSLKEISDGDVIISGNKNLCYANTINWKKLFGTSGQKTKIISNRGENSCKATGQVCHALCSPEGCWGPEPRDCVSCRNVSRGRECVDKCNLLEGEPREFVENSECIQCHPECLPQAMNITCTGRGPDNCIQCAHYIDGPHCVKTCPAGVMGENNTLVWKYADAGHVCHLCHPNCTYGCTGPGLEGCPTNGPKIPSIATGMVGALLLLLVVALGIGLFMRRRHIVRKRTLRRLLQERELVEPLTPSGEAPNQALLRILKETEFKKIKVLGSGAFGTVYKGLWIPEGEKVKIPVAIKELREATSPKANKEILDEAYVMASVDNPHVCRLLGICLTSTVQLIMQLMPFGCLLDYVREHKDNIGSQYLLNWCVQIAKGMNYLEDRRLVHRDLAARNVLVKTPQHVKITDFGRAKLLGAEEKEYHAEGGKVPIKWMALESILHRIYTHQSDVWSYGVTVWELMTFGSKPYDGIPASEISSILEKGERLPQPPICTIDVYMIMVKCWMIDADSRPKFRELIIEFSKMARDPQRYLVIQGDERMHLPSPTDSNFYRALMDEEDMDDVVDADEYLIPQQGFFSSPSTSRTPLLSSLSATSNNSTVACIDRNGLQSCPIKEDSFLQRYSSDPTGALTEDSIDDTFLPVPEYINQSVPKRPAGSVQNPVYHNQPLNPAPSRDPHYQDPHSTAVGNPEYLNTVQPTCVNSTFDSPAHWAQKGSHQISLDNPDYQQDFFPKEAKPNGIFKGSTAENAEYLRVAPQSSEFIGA

SMILES | inhibition of EGFR phosphorylation (EGFR phosphorylation) | induction of apoptosis (H1975 cells [1]) | IC50 (EGFR wild type [2]) [nM] | Fold difference from L858R value (EGFR wild type [3]) | anticancer activity / effect on cell proliferation (H1975 cells [4]) | IC50 (EGFR L858R) [nM] | Fold difference from L858R value (EGFR L858R/T790M) | IC50 (EGFR L858R/T790M) [nM] | anticancer activity / effect on cell proliferation (HCC827 cells) | further results
OCCN1CCN(CC/C=C2/c3ccccc3Sc3ccc(C(F)(F)F)cc32)CC1 [Cis-flupenthixol] | similarly in both H1975 and HCC827 cells | induce apoptosis in a concentration-dependent manner | 186 ± 21.5 | 2.2 | exhibit anticancer activity | 83 ± 5.2 | 1.1 | 94 ± 11.2 | exhibit anticancer activity | reduced cell viability (BEAS-2B cells; highest concentration tested 20 µM): less than 20%
O=C(c1ccc(F)cc1)C1CCN(CCn2c(=O)[nH]c3ccccc3c2=O)CC1 [Ketanserin] |  |  |  |  | negative |  |  |  | negative | 
C=CC(=O)Nc1cc(Nc2nccc(-c3cn(C)c4ccccc34)n2)c(OC)cc1N(C)CCN(C)C [osimertinib] |  |  |  |  |  |  |  |  |  | IC50 [5]: ~11 nM
COc1cc2ncnc(Nc3ccc(F)c(Cl)c3)c2cc1OCCCN1CCOCC1 [Gefitinib] |  |  |  |  |  |  |  |  |  | proportion of apoptotic cells (H1975 cells [1]; H1975, gefitinib alone 4 µM): 6.9 ± 1.2%
C#Cc1cccc(Nc2ncnc3cc(OCCOC)c(OCCOC)cc23)c1 [Erlotinib] |  |  |  |  |  |  |  |  |  | IC50 (BEAS-2B cells; Homo sapiens, BEAS-2B normal lung epithelial cells): ~20000 nM; IC50 (H1975 cells [4]; Homo sapiens, NCI-H1975, 72 h): 8200 ± 2100 nM
Cc1ccc([C@@H]2O[C@H](CO)[C@@H](O)[C@H](O)[C@H]2O)cc1Cc1ccc(-c2ccc(F)cc2)s1 [Canagliflozin] | more potently in H1975 than in HCC827 cells | induce apoptosis in a concentration-dependent manner | 795 ± 49.6 | 2.2 | exhibit anticancer activity | 368 ± 29.6 | 0.7 | 261 ± 24.4 | exhibit anticancer activity | reduced cell viability (BEAS-2B cells; [8]): less than 20%; IC50 (H1975 cells [4]; [9]): 25500 ± 3100 nM; induction of PUMA (PUMA): more pronounced induction of PUMA in H1975 cells than in HCC827 cells; IC50 (HCC827 cells): 45400 ± 2900 nM; inhibition of phosphorylation of Akt and ERK [6]: more remarkably in H1975 than in HCC827
CCc1cc2c(cc1CC)CC(NC[C@H](O)c1ccc(O)c3[nH]c(=O)ccc13)C2 [Indacaterol] | more potently in H1975 than in HCC827 cells | induce apoptosis in a concentration-dependent manner | 792 ± 43.2 | 3.4 | exhibit anticancer activity | 232 ± 36.5 | 0.4 | 103 ± 14 | exhibit anticancer activity | reduced cell viability (BEAS-2B cells; [8]): less than 20%; proportion of apoptotic cells (H1975 cells [1]; H1975, indacaterol alone 5 µM): 9.7 ± 1.8%; IC50 (H1975 cells [4]; [9]): ~14000 nM; IC50 (H1975 cells [4]; Homo sapiens, NCI-H1975, 72 h, H1975 (EGFR L858R/T790M), 72 h, read-out: IC50): 14300 ± 2200 nM; inhibition of phosphorylation of EGFR, Akt, and ERK [7]: mildly; induction of PUMA (PUMA): more pronounced induction of PUMA in H1975 cells than in HCC827 cells; IC50 (HCC827 cells; Homo sapiens): 41500 ± 3900 nM; inhibition of phosphorylation of Akt and ERK [6]: more remarkably in H1975 than in HCC827
CCCc1nn(C)c2c(=O)[nH]c(-c3cc(S(=O)(=O)N4CCN(C)CC4)ccc3OCC)nc12 [Sildenafil] |  |  |  |  | negative |  |  |  | negative | 
